Results reported in patent US20250108038A1 (priority 2023, published 2025).

Experiments:
[1] = system: HEK293 uptake transporter overexpressing and control cells; assay: Resazurin-based cytotoxicity assay
Experimental: The cells were plated on 96-well plates. Prior to the experiment the medium was removed, and cells were rinsed with 2×100 μL of the respective buffer for uptake transporter transfected and control cell lines.

human red blood cells = assay: Hemolysis study in human blood; type: cell-based; conditions: 60 min, 37° C.
Experimental: FIG. 4A. […] Compound I-19 in human blood. Red blood cells were isolated from whole blood and resuspended in PBS. […] (final concentrations 25, 50, and 100 μM) and the mixtures were incubated at 37° C. for 60 min. After the incubation, the samples were centrifuged and the absorbance of 100 μL of supernatant was read at 410 nm. % RBC lysis is expressed relative to 100% lysis control. Values represent mean+SEM of n=3 separate experiments.
FIG. 4B. Hemolytic Potential of Compound I-4 in human blood. Red blood cells were isolated from whole blood and resuspended in PBS. 190 μL of diluted RBC suspension and 10 μL of Compound I-4 solutions were mixed at 0 min. (final concentrations 25, 50, and 100 μM) and the mixtures were incubated at 37° C. for 60 min. After the incubation, the samples were centrifuged and the absorbance of 100 μL of supernatant was read at 410 nm. % RBC lysis is expressed relative to 100% lysis control. Values represent mean+SEM of n=3 separate experiments.
FIG. 4C. Hemolytic Potential of Amphotericin B in human blood (positive assay control). Red blood cells were isolated from whole blood and resuspended in PBS. 190 μL of diluted RBC suspension and 10 μl of amphotericin B solutions were mixed at 0 min. (final concentrations 1, 10, 30, and 100 μM) and the mixtures were incubated at 37° C. for 60 min. After the incubation, the samples were centrifuged and the absorbance of 100 μL of supernatant was read at 410 nm. % RBC lysis is expressed relative to 100% lysis control. Values represent mean+SEM of n=3 separate experiments.
To a clear 96-well V-bottom polystyrene plate, the test articles (10 μL) and the diluted RBCs (190 μL) from human or rat blood were mixed for final concentrations of 25, 50, and 100 μM. The reaction mixture was incubated at 37° C. for 60 min. Following the exposure period, the plates were centrifuged. After centrifugation, 70 μL of supernatant (without disturbing the pellet) was transferred to a clean and clear polystyrene flat bottomed 96-well plate and the absorbance of the sample at a single wavelength was measured using a BioTech Synergy H1 Plate Reader at a wavelength of 410 nm. The positive control for this assay was amphotericin B test at concentrations of 1, 10, 30, and 100 μM.

[2] = Stability in components of rat blood; type: in vitro ADME; conditions: 0.5 mM, 37° C., 0-120 min
Experimental: FIG. 5A. […] Compound I-19 in components of rat blood. Red blood cells and plasma were isolated from whole blood. […] Values represent mean+SEM of n=3 separate experiments.
FIG. 5B. Stability of Compound I-4 in components of rat blood. Red blood cells and plasma were isolated from whole blood. […] Values represent mean+SEM of n=3 separate experiments.
Human and rat blood were centrifuged to separate out red blood cells at 1174×g for 15 min. The upper plasma level was aspirated with a micropipette and placed in a bleach solution for disposal. The RBC pellet was resuspended in sterile isotonic saline. The pellet was gently resuspended by rocking the tube. The sample was then centrifuged again to collect the RBC pellet and then resuspended and washed one more time following the same procedure. A total of three was done. Following the last wash and centrifugation, the RBCs were resuspended with PBS; and mixed by inversion. Aliquots of the resuspended and washed RBCs were then placed into 4 reaction tubes. These tubes were centrifuged to collect the RBCs. The fluid level was marked on each tube, then the supernatant was aspirated off and the cells resuspended with room temperature PBS pH 7.4 to the original mark. An aliquot of the RBC suspension was added to four sterile tubes containing PBS pH 7.4 at room temperature.
The stability of test articles in whole blood, red blood cells only, and plasma was done to determine stability in each blood compartment. 50 μL of test article was placed in each blood matrix. The final volume was 1 mL (0.5 mM). […] LCMSMS of parent compound was used to determine stability.

[3] = MATE1 assay, 5.00 μM, incubation 30 + 3 min
[4] = MATE1 assay, 10.00 μM, incubation 30 + 3 min
[5] = MATE1 assay, 20.00 μM, incubation 30 + 3 min
[6] = MATE1 assay, 30.00 μM, incubation 30 + 3 min
[7] = MATE2-K assay, 5.00 μM, incubation 30 + 1 min
[8] = MATE2-K assay, 10.00 μM, incubation 30 + 1 min
[9] = MATE2-K assay, 20.00 μM, incubation 30 + 1 min
[10] = MATE2-K assay, 30.00 μM, incubation 30 + 1 min
[11] = OAT1 assay, 5.00 μM, incubation 30 + 2 min
[12] = OAT1 assay, 10.00 μM, incubation 30 + 2 min
[13] = OAT1 assay, 20.00 μM, incubation 30 + 2 min
[14] = OAT1 assay, 30.00 μM, incubation 30 + 2 min
[15] = OAT3 assay, 5.00 μM, incubation 30 + 1 min
[16] = OAT3 assay, 10.00 μM, incubation 30 + 1 min
[17] = OAT3 assay, 20.00 μM, incubation 30 + 1 min
[18] = OAT3 assay, 30.00 μM, incubation 30 + 1 min
[19] = OATP1B1 assay, 5.00 μM, incubation 30 + 3 min
[20] = OATP1B1 assay, 10.00 μM, incubation 30 + 3 min
[21] = OATP1B1 assay, 20.00 μM, incubation 30 + 3 min
[22] = OATP1B1 assay, 30.00 μM, incubation 30 + 3 min
[23] = OATP1B3 assay, 5.00 μM, incubation 30 + 2 min
[24] = OATP1B3 assay, 10.00 μM, incubation 30 + 2 min
[25] = OATP1B3 assay, 20.00 μM, incubation 30 + 2 min
[26] = OATP1B3 assay, 30.00 μM, incubation 30 + 2 min
[27] = OCT1 assay, 5.00 μM, incubation 30 + 3 min
[28] = OCT1 assay, 10.00 μM, incubation 30 + 3 min
[29] = OCT1 assay, 20.00 μM, incubation 30 + 3 min
[30] = OCT1 assay, 30.00 μM, incubation 30 + 3 min
[31] = OCT2 assay, 5.00 μM, incubation 30 + 1 min
[32] = OCT2 assay, 10.00 μM, incubation 30 + 1 min
[33] = OCT2 assay, 20.00 μM, incubation 30 + 1 min
[34] = OCT2 assay, 30.00 μM, incubation 30 + 1 min

## OC1(c2ccc(Cl)cc2)c2ccccc2C2=NCCN21 (centres unmarked) [Compound A, 5-(4-chlorophenyl)-2,3-dihydroimidazo[1,2-b]isoindol-5-ol, reference compound]
[1]; HEK293-MATE1-LV, -MATE2-K-LV, -OAT1-LV, -OAT3-LV, -OATP1B1-LV, -OATP1B3-LV, -OCT1-LV, -OCT2-LV and control cells
  Cell viability (cytotoxic effect): did not reduce the cell viability
[1]; [3]
  Relative cell viability, control cells: 99.21 ± 1.16 % of control
  Relative cell viability, transfected cells: 100.44 ± 1.23 % of control
[1]; [4]
  Relative cell viability, control cells: 99.15 ± 1.14 % of control
  Relative cell viability, transfected cells: 100.94 ± 1.13 % of control
[1]; [5]
  Relative cell viability, control cells: 99.30 ± 1.01 % of control
  Relative cell viability, transfected cells: 101.82 ± 1.13 % of control
[1]; [6]
  Relative cell viability, control cells: 99.32 ± 1.20 % of control
  Relative cell viability, transfected cells: 100.38 ± 1.18 % of control
[1]; [7]
  Relative cell viability, control cells: 98.30 ± 0.72 % of control
  Relative cell viability, transfected cells: 100.17 ± 1.24 % of control
[1]; [8]
  Relative cell viability, control cells: 101.55 ± 0.74 % of control
  Relative cell viability, transfected cells: 99.35 ± 0.57 % of control
[1]; [9]
  Relative cell viability, control cells: 99.74 ± 0.77 % of control
  Relative cell viability, transfected cells: 98.93 ± 1.00 % of control
[1]; [10]
  Relative cell viability, control cells: 99.57 ± 0.77 % of control
  Relative cell viability, transfected cells: 95.00 ± 1.36 % of control
[1]; [11]
  Relative cell viability, control cells: 99.60 ± 2.60 % of control
  Relative cell viability, transfected cells: 101.06 ± 0.56 % of control
[1]; [12]
  Relative cell viability, control cells: 102.26 ± 1.66 % of control
  Relative cell viability, transfected cells: 100.28 ± 0.26 % of control
[1]; [13]
  Relative cell viability, control cells: 103.10 ± 2.01 % of control
  Relative cell viability, transfected cells: 98.34 ± 0.33 % of control
[1]; [14]
  Relative cell viability, control cells: 102.66 ± 2.43 % of control
  Relative cell viability, transfected cells: 93.28 ± 2.26 % of control
[1]; [15]
  Relative cell viability, control cells: 98.41 ± 1.36 % of control
  Relative cell viability, transfected cells: 97.17 ± 0.40 % of control
[1]; [16]
  Relative cell viability, control cells: 96.14 ± 2.42 % of control
  Relative cell viability, transfected cells: 98.73 ± 0.68 % of control
[1]; [17]
  Relative cell viability, control cells: 95.85 ± 2.05 % of control
  Relative cell viability, transfected cells: 97.97 ± 0.89 % of control
[1]; [18]
  Relative cell viability, control cells: 98.11 ± 1.29 % of control
  Relative cell viability, transfected cells: 99.16 ± 0.66 % of control
[1]; [19]
  Relative cell viability, control cells: 95.83 ± 0.85 % of control
  Relative cell viability, transfected cells: 101.07 ± 0.61 % of control
[1]; [20]
  Relative cell viability, control cells: 93.21 ± 2.18 % of control
  Relative cell viability, transfected cells: 102.28 ± 0.69 % of control
[1]; [21]
  Relative cell viability, control cells: 96.00 ± 0.81 % of control
  Relative cell viability, transfected cells: 99.79 ± 0.88 % of control
[1]; [22]
  Relative cell viability, control cells: 96.60 ± 2.23 % of control
  Relative cell viability, transfected cells: 98.92 ± 1.07 % of control
[1]; [23]
  Relative cell viability, control cells: 96.08 ± 0.72 % of control
  Relative cell viability, transfected cells: 99.30 ± 0.80 % of control
[1]; [24]
  Relative cell viability, control cells: 93.50 ± 0.99 % of control
  Relative cell viability, transfected cells: 99.16 ± 1.10 % of control
[1]; [25]
  Relative cell viability, control cells: 98.24 ± 0.33 % of control
  Relative cell viability, transfected cells: 99.23 ± 0.43 % of control
[1]; [26]
  Relative cell viability, control cells: 100.55 ± 0.31 % of control
  Relative cell viability, transfected cells: 99.58 ± 0.58 % of control
[1]; [27]
  Relative cell viability, control cells: 95.85 ± 5.15 % of control
  Relative cell viability, transfected cells: 105.13 ± 8.07 % of control
[1]; [28]
  Relative cell viability, control cells: 99.88 ± 5.10 % of control
  Relative cell viability, transfected cells: 106.01 ± 8.03 % of control
[1]; [29]
  Relative cell viability, control cells: 98.58 ± 5.65 % of control
  Relative cell viability, transfected cells: 105.82 ± 8.04 % of control
[1]; [30]
  Relative cell viability, control cells: 102.27 ± 5.38 % of control
  Relative cell viability, transfected cells: 109.22 ± 8.33 % of control
[1]; [31]
  Relative cell viability, control cells: 95.32 ± 3.75 % of control
  Relative cell viability, transfected cells: 96.41 ± 1.41 % of control
[1]; [32]
  Relative cell viability, control cells: 93.96 ± 4.78 % of control
  Relative cell viability, transfected cells: 97.59 ± 1.08 % of control
[1]; [33]
  Relative cell viability, control cells: 96.81 ± 3.07 % of control
  Relative cell viability, transfected cells: 98.80 ± 0.86 % of control
[1]; [34]
  Relative cell viability, control cells: 96.68 ± 2.77 % of control
  Relative cell viability, transfected cells: 98.11 ± 0.97 % of control
[1]; all uptake transporter overexpressing and control cells
  decrease of the relative cell viability compared to solvent (DMSO): less than 20%

## COCCOC1(c2ccc(Cl)cc2)c2ccccc2C2=NCCN21 (centres unmarked) [Compound I-4]
Human red blood cells
  EC50 (% RBC lysis): outside the concentration range tested
Human red blood cells; test articles 25, 50, 100 μM, amphotericin B 1, 10, 30, 100 μM
  % RBC lysis (hemolytic potential): no detectable hemolysis
[2]; rat plasma
  % parent compound remaining: no significant change in the amount of parent compound
[2]; rat red blood cells
  % parent compound remaining: small time-dependent decrease in the amount of parent compound remaining
[2]; rat whole blood
  % parent compound remaining: small time-dependent decrease in the amount of parent compound remaining
